Laboratory results as given in patent US20220040219A1, “COMPOSITIONS AND METHODS FOR TREATING CYSTIC FIBROSIS” (SpliSense Ltd., priority 2019, published 2022).

Molecular target: T1, CFTR del Ex23 (Homo sapiens, UniProt P13569, DEL1240-1291)
T1 construct: expressed in transfected cells; host or cells: HEK 293 cells, transient transfection with Lipofectamine 2000
Experiment: FLIPR membrane potential assay of CFTR function in HEK 293 cells transiently transfected with CFTR del Ex23
Assay type: cell-based
Details: forskolin 10 μM, addition of potentiator VX-770 (1 μM), FIG. 1B
Protocol: HEK cells were transiently transfected with a construct bearing a CFTR transcript having exon 23 completely deleted from it (CFTR del Ex23). Transfection was carried out using Lipofectamine 2000 transfection reagent (Invitrogen) according to the lipofectamine 2000 reagent protocol using the following lipofectamine amounts: 96 well—0.15 μl, 6 well—3 μl, […]—15 μl.
HEK cells transfected with the CFTR del Ex23 contruct were grown in 96-well (black, flat bottom; corning) plates. 48 hr post-transfection, CFTR channel function was analyzed using the FLIPR membrane potential assay as previously described (Molinski et al., 2015). Briefly, the cells were loaded with blue membrane potential dye (Molecular Devices), which can detect changes in transmembrane potential. The plate was then read in a fluorescence plate reader (BioTek Synergy H1) for baseline levels followed by CFTR stimulation using the cAMP agonist forskolin (10 μM; Sigma), DMSO vehicle was used as a negative control. CFTR-mediated depolarization of the plasma membrane was detected as an increase in fluorescence and hyperpolarization (or repolarization) as a decrease. […]
FLIPR™ (Fluorescence Imaging Plate Reader) is a functional system that allows measuring changes in membrane potential by a fluorescent indicator. […]

T1 sequence (P13569 with tags, fused parts or gaps DEL1240-1291): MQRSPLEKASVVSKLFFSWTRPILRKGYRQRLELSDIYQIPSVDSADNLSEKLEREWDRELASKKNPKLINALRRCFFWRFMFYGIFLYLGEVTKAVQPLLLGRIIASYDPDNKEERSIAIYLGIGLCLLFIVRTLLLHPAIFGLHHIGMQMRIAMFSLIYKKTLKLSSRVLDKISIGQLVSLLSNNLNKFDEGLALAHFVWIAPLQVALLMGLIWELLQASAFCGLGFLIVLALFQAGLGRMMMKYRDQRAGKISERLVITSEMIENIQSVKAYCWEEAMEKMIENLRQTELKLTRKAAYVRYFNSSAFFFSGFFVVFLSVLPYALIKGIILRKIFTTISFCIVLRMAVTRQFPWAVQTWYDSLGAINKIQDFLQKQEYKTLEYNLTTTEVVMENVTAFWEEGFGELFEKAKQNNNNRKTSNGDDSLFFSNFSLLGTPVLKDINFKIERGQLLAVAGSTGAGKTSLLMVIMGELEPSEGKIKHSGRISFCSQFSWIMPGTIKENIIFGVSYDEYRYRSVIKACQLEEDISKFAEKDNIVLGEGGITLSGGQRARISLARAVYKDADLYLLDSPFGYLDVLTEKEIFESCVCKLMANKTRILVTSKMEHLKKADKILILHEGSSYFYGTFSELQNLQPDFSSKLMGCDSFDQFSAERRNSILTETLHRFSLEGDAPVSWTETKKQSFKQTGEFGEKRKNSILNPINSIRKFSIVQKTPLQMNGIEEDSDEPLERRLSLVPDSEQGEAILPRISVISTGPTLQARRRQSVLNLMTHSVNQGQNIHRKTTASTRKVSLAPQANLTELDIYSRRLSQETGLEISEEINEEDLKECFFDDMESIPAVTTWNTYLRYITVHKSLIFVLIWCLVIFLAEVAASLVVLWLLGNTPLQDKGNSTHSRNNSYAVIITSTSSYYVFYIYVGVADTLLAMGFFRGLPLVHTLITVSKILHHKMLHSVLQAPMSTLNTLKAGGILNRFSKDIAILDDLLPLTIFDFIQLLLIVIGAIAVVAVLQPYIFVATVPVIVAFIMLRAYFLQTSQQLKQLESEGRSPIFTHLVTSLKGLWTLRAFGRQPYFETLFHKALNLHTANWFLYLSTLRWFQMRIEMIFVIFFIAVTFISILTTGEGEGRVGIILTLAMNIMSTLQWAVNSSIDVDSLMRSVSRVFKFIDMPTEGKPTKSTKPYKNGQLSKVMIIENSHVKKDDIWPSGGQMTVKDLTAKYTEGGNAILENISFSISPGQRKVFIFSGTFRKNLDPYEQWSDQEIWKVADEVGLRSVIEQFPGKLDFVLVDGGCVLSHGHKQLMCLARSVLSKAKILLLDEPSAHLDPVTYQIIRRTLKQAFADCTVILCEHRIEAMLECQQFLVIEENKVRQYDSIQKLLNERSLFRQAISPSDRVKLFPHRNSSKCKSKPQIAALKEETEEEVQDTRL

With `CC(C)(C)c1cc(C(C)(C)C)c(NC(=O)c2c[nH]c3ccccc3c2=O)cc1O` [VX-770, N-(2,4-Di-tert-butyl-5-hydroxyphenyl)-4-oxo-1,4-dihydroquinoline-3-carboxamide] the channel activation was 35 % of WT.
